Measurements taken from EP1923473B1, “Bis-diglycolamides (BISDGA) as new extractants for lanthanides [Ln(III)] and actinides [An(III)] from aqueous high-level wastes” (Universidad Autónoma de Madrid, priority 2006, dated 2008).

Tests used:
Assay type in all cases: physicochemical
[1] = Batch extraction from simulated HLLW from the PUREX process; settings: 0.1 mol/L in TPH/1-octanol (90:10)
Source text: (§1) The feed solution used for the extraction tests is a simulated solution of an HLLW from the PUREX process, the composition of which is shown in Table 4. Table 4: Composition of the simulated HLLW-PUREX solution used for the extraction tests
(§2) The composition of the HLLW corresponds to a burn-up of 33 GWd/tHM, the generated volume of HLLW being 5000 1/t of fuel. The feed was spiked with ^241Am, ^244Cm, ^252Cf and ^152Eu. Oxalic acid and N-(2-hydroxyethyl)ethylenediaminotriacetate (HEDTA) were also added before the extraction tests.
(§3) 500 µL of the aqueous and organic phases were spiked with 10 µL of a tracer solution containing 241Am, 244Cm, 252Cf and ^152Eu, and were equilibrated for 10 minutes while they were stirred vigorously in a vortex stirrer. After the separation of the phases by centrifugation, 200 µL aliquots of each phase were taken for the determination of the concentration of ^241Am and ^152Eu using a high-purity germanium spectrometer system (EG&G Ortec). The nuclides ^241Am, ^244Cm and ^252Cf were measured by alpha spectrometry with an α-Analyst device of the company Canberra-Packard GmbH, Germany.
(§4) The concentrations of the stable elements were determined by mass spectrometry with an inductively coupled plasma source (ICP-MS) in a DRC Elan 6100 device of Perkin Elmer Sciex. The aqueous phase was measured directly after the appropriate dilution. The organic phase was analyzed after having mineralized the organic matter by microwave acid digestion and subsequent dilution.
(§5) The distribution coefficients were calculated for each element according to section C).
(§6) Extraction experiments were carried out with said simulated HLLW in a pure form and also adding oxalic acid and HEDTA to it.

[2] = as above; settings: 0.1 mol/L in TPH/1-octanol (90:10); remark: listed apart in the source
Source text: as §1, §2, §3, §4, §5
A 0.1 mol/L solution of compound 4 in the "TPH/1-octanol (90:10)%vol" mixture was prepared. Extraction experiments were carried out with said simulated HLLW in a pure form and also adding oxalic acid and HEDTA to it. These complexing agents have shown to be effective in the DIAMEX process for the complexing of Mo, Zr (H2C2O4) and Pd (HEDTA).

[3] = as above; settings: for Distribution coefficients Sr: 0.1 mol/L in TPH/1-octanol (90:10)
Description: as §1
The composition of the HLLW corresponds to a burn-up of 33 GWd/tHM, the generated volume of HLLW being 5000 1/t of fuel. […] Oxalic acid and N-(2-hydroxyethyl)ethylenediaminotriacetate (HEDTA) were also added before the extraction tests.
as §4, §5, §6, §6

[4] = Extraction capability at different nitric acid concentrations in the aqueous phase; settings: 0.1 mol/L in 1-octanol or TPH/1-octanol mixtures
Description: The organic solutions were prepared as indicated previously in section A). The aqueous solutions consisted of nitric acid solutions at different concentrations (0.06 mol/L, 0.11 mol/L, 0.65 mol/L, 1.0 mol/L, 3.1 mol/L and 6.7 mol/L) each of them spiked with 600 Bq of ^152Eu and 600 Bq of ^241Am. The nitric acid concentration of these solutions was determined by a potentiometric titration before and after the extraction equilibrium.
The organic solutions of the compound to be studied were equilibrated with the corresponding aqueous solution, according to the different nitric acid concentrations considered, as indicated previously in section B).
600 µL of equilibrated organic phase were contacted with 600 µL of the aqueous phase of the corresponding nitric acid concentration. […]
The influence of the concentration of aqueous nitric acid of the aqueous phase, from 0.05 mol/L to 7 mol/L, on the extraction of Am/Eu with compound 4 was studied in different TPH/1-octanol mixtures as solvent, and also in 100% 1-octanol. To that end, the distribution coefficients of Am(III) and Eu(III) were determined for compound 4 dissolved at 0.1 mol/L in 1-octanol and in the following TPH/1-octanol mixtures: 50:50, 75:25 and 90:10 by volume, for the following nitric acid concentrations of the solution containing Am(III)/Eu(III): 0.06 mol/L; 0.11 mol/L; 0.65 mol/L; 1.0 mol/L; 3.1 mol/L and 6.7 mol/L. […]

[5] = Oxalic acid 0.2 mol/L, HEDTA 0.05 mol/L, TBP 0.5 mol/L
[6] = Oxalic acid 0.2 mol/L, HEDTA 0.05 mol/L, TBP No
[7] = Oxalic acid 0.3 mol/L, HEDTA 0.05 mol/L, TBP 0.5 mol/L
[8] = Oxalic acid 0.3 mol/L, HEDTA 0.05 mol/L, TBP No
[9] = Oxalic acid No, HEDTA No, TBP 0.5 mol/L
[10] = Oxalic acid No, HEDTA No, TBP No

With “2-Dioctylcarbamoylmethoxy-N-[3-[3-(2-dioctylcarbamoyl-methoxyacetylamino)propoxy]propyl]acetamide [Compound 18]” the “Distribution coefficients Cr” value [1, 5] was 0.006, the “Distribution coefficients Cu” value [1, 5] was 0.085 and the “Distribution coefficients Fe” value [1, 5] was 0.001. For the same substance, the “Distribution coefficients Ni” value [1, 5] was 0.015, the “Distribution coefficients Cr” value [1, 6] was 0.006 and the “Distribution coefficients Cu” value [1, 6] was 0.075. The “Distribution coefficients Fe” value [1, 6] was 0.001, the “Distribution coefficients Ni” value [1, 6] was 0.014 and the “Distribution coefficients Cr” value [1, 7] was 0.006. For the same substance, the “Distribution coefficients Cu” value [1, 7] was 0.093, the “Distribution coefficients Fe” value [1, 7] was 0.009 and the “Distribution coefficients Ni” value [1, 7] was 0.015. For the same substance, the “Distribution coefficients Cr” value [1, 8] was 0.006, the “Distribution coefficients Cu” value [1, 8] was 0.083 and the “Distribution coefficients Fe” value [1, 8] was 0.001. The “Distribution coefficients Ni” value [1, 8] was 0.014, the “Distribution coefficients Cr” value [1, 9] was 0.006 and the “Distribution coefficients Cu” value [1, 9] was 0.067. The “Distribution coefficients Fe” value [1, 9] was 0.001, the “Distribution coefficients Ni” value [1, 9] was 0.014 and the “Distribution coefficients Cr” value [1, 10] was 0.006. The “Distribution coefficients Cu” value [1, 10] was 0.064, the “Distribution coefficients Fe” value [1, 10] was 0.001 and the “Distribution coefficients Ni” value [1, 10] was 0.014.
With “2-Dioctylcarbamoylmethoxy-N-[3-[(2-dioctylcarbamoyl-methoxy-acetylamino)methyl]benzyl]acetamide [Compound 4]” the “Distribution coefficients Dy” value [2, 5] was 86, the “Distribution coefficients Sb” value [2, 5] was 0.012 and the “Distribution coefficients Sn” value [2, 5] was 0.0087. The “Distribution coefficients Tb” value [2, 5] was 54, the “Distribution coefficients Te” value [2, 5] was 0.0012 and the “Distribution coefficients Dy” value [2, 6] was 171. For the same substance, the “Distribution coefficients Sb” value [2, 6] was 0.011, the “Distribution coefficients Sn” value [2, 6] was 0.0076 and the “Distribution coefficients Tb” value [2, 6] was 153. For the same substance, the “Distribution coefficients Te” value [2, 6] was 0.0014, the “Distribution coefficients Dy” value [2, 7] was 184 and the “Distribution coefficients Sb” value [2, 7] was 0.011. For the same substance, the “Distribution coefficients Sn” value [2, 7] was 0.0072, the “Distribution coefficients Tb” value [2, 7] was 77 and the “Distribution coefficients Te” value [2, 7] was 0.0011. The “Distribution coefficients Dy” value [2, 8] was 195, the “Distribution coefficients Sb” value [2, 8] was 0.012 and the “Distribution coefficients Sn” value [2, 8] was 0.0092. The “Distribution coefficients Tb” value [2, 8] was 107, the “Distribution coefficients Te” value [2, 8] was 0.0012 and the “Distribution coefficients Dy” value [2, 9] was 64. For the same substance, the “Distribution coefficients Sb” value [2, 9] was 0.011, the “Distribution coefficients Sn” value [2, 9] was 0.0089 and the “Distribution coefficients Tb” value [2, 9] was 57. The “Distribution coefficients Te” value [2, 9] was 0.0012, the “Distribution coefficients Dy” value [2, 10] was 141 and the “Distribution coefficients Sb” value [2, 10] was 0.012. The “Distribution coefficients Sn” value [2, 10] was 0.0073, the “Distribution coefficients Tb” value [2, 10] was 123 and the “Distribution coefficients Te” value [2, 10] was 0.0011. The “factor by which the Sr distribution coefficient is lower than that obtained with TODGA” value [3] was 10, the Dsr ([3]; 0.1 mol/L in TPH/1-octanol (90:10)%vol, summary of all conditions) was under 0.13 and the “Distribution coefficients Sr” value [3, 5] was 0.071. For the same substance, the “Distribution coefficients Sr” value [3, 6] was 0.110, the “Distribution coefficients Sr” value [3, 7] was 0.099 and the “Distribution coefficients Sr” value [3, 8] was 0.132. The “Distribution coefficients Sr” value [3, 9] was 0.061, the “Distribution coefficients Sr” value [3, 10] was 0.071 and the “extraction capability at diluted nitric acid concentrations” value [4] was “very low”.
